# In patent US20110112148A1, “INDOLINE COMPOUNDS” (Ferrer Internacional S.A., priority 2007, published 2011):
# Target: T1, recombinant human MT1 receptor (Homo sapiens, UniProt P48039)
# T1 construct: expressed in transfected cells; host or cells: unnamed cell line co-expressing mitochondrial apoaequorin and the Galpha16 subunit
# Assay: Agonist activity on MT1 receptors (aequorin luminescence, Gα16 co-expressing cell line)
# Format: cell-based
# Conditions: percentage activity with respect to the reference agonist at its EC100; for MT1 agonism, 1 nm: compound at 1 nm; for MT1 agonism, 100 nm: compound at 100 nm
# Excerpt: Determination of the Agonist Activity on MT1 Receptors
# In order to screen compounds for the MT1 receptor a cell line is used that is characterised by stable overexpression of the recombinant human MT1 receptor in a cell line that in turn co-expresses mitochondrial apoaequorin and the Gα16 subunit.
# The Ga16 subunit belongs to the G protein family, formed by GPCR, wherein the transduction of intracellular signals occurs via phospholipase (PLC). PLC activation produces an increase in inositol-triphosphate levels that leads to an increase in intracellular calcium. Ga16 overexpression thus allows an increase in intracellular calcium levels that is independent and compatible with the study receptor's own signal transduction pathway.
# Following its binding to calcium, the aequorin oxidises coelenterazine to coelenteramide, a reaction that releases CO2 and light.
# The trial protocol for the screening of possible agonists consists in collecting the cells and keeping them in suspension overnight in the presence of coelenterazine in order to reconstitute aequorin. On the following day the cells are injected on a plate where the compounds to be screened are diluted, and the luminescence released is read immediately. When wishing to study the possible antagonism of the same compounds, the reference agonist compound is added in the same well after 15-30 min from the first injection and the luminescence released is assessed.
# Agonist activity is calculated as percentage activity with respect to the reference agonist at the concentration corresponding to its EC100. Antagonist activity is expressed as percentage inhibition over the reference agonist activity at the concentration corresponding to its EC80.
# T1 sequence (P48039 whole entry): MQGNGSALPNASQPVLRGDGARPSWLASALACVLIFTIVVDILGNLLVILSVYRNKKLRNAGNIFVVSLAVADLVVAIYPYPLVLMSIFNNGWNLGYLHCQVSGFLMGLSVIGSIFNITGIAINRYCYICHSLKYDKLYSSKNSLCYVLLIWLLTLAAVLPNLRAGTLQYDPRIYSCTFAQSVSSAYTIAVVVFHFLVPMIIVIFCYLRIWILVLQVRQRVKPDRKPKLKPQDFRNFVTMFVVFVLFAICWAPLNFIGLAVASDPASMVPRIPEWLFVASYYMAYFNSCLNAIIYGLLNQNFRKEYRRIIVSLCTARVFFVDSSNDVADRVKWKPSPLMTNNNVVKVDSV
"MT1 agonism, 1 nm","MT1 agonism, 100 nm",Structure (SMILES)
13.1%,92%,"COc1ccc2c(c1)N(CCNC(C)=O)CC2 [Example 1, N-[2-(6-methoxy-2,3-dihydro-indol-1-yl)-ethyl]-acetamide]"
14.6%,94%,"COc1ccc2c(c1)N(CCNC(=O)C(F)(F)F)CC2 [Example 4, 2,2,2-trifluoro-N-[2-(6-methoxy-2,3-dihydro-indol-1-yl)-ethyl]-acetamide]"
11.5%,89.8%,"COc1ccc2c(c1)N(C(C)CNC(C)=O)CC2 (centres unmarked) [Example 5, N-[2-(6-methoxy-2,3-dihydro-indol-1-yl)-propyl]-acetamide]"
13.9%,76.6%,"CC(=O)NCCN1CCc2ccc3c(c21)CCO3 [N-[2-(2,3,7,8-tetrahydro-1H-furo[2,3-g]indol-1-yl)-ethyl]-acetamide, reference compound]"
